Reference: article PMC7021761 (Nature Communications, 2020)
Values belong to the substance of their own block, whether it stands above or below them.

How the values were obtained:
[1] = tested on: Wild type FPR2; conditions: cited from earlier work
Description: IC50 values of six formylpeptides in the cAMP accumulation assays reported previously by He et al., 2014*.

[2] = target: T1, C5aR (Homo sapiens, UniProt P21730); assay: 35S-GTPγS binding assay, Sf9 cell membranes overexpressing C5aR with purified Gi (control); type: biochemical; conditions: increasing concentrations of WKYMVm, n = 3
T1 construct: expressed in transfected cells; host or cells: Sf9 insect cells, membranes
T1 sequence (P21730 1-350): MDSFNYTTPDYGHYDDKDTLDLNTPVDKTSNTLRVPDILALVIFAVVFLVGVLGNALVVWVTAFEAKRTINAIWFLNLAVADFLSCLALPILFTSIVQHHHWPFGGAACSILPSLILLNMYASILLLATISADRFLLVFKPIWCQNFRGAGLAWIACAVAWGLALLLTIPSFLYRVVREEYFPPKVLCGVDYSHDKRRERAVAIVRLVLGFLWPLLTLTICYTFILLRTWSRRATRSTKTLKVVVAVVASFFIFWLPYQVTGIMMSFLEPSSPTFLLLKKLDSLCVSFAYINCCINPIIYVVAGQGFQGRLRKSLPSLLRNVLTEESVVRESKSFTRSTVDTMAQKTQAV
Description: To form receptor-Gi complex, ~250 μg/ml of membrane of Sf9 cells overexpressing FPR2 or C5aR (for Fig. 1a) or membrane of HEK-293 cells transiently expressing FPR2 and mutants was incubated with 200 nM purified Gi protein for 25 minutes at 4°C in buffer containing 20 mM HEPES pH 7.5, 100 mM NaCl, 5 mM MgCl2, 5 μM GDP, 0.1 μM TCEP, and 3 μg/ml BSA. […] After 10–15 min reaction at 25 °C, 4 ml of cold wash buffer containing 20 mM HEPES pH 7.5, 100 mM NaCl and 5 mM MgCl2 was added to terminate the reaction, and the membranes was collected by filtering through glass fiber prefilters (Millipore Sigma). After four times additional wash, the filters were incubated with 5 ml of CytoScint liquid scintillation cocktail (MP Biomedicals) and counted in a Beckman LS6500 scintillation counter to determine the receptor activation induced binding of ^35S-GTPγS to Gi. The data were analyzed by GraphPad Prism 6 (GraphPad Software). Results are presented as mean ± s.e.m. from three independent experiments.

[3] = tested on: FPR1; conditions: cited from earlier work
Description: FPR1 and FPR2 share a high 69% sequence identity, but they have distinct preferences for formylpeptides and play different roles in host defense[4],[40],[43]. […] To explore the molecular basis for the different receptor pharmacology, we generated a three-dimensional homology model of FPR1 ...

[4] = target: T2, FPR2 R205A (Homo sapiens, UniProt P25090, R205A); assay: 35S-GTPγS binding assay, HEK-293 cell membranes with purified Gi, FPR2 R205A; type: biochemical; design: FLAG; expressed in transfected cells; host or cells: HEK-293 cells, transient, membranes
Target sequence in this assay (P25090 whole entry R205A): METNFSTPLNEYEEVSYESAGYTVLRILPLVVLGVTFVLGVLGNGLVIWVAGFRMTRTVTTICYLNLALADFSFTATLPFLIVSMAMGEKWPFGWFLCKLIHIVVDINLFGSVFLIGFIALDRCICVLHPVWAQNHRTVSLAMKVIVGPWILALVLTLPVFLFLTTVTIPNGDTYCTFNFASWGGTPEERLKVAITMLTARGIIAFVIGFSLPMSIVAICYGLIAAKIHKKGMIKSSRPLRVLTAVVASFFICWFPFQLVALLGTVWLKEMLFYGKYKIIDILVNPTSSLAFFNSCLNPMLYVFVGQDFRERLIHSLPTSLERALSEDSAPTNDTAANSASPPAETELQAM
Target sequence in this assay (P63096 whole entry partner): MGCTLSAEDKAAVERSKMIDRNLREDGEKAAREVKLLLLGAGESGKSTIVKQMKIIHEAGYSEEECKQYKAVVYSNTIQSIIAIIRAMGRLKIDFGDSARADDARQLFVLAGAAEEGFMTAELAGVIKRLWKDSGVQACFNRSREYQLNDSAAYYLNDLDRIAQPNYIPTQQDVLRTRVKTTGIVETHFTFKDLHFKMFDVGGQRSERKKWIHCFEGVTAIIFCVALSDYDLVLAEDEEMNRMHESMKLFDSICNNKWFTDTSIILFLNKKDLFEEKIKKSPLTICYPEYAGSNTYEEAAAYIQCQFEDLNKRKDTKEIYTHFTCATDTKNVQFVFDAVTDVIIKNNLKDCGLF
Target sequence in this assay (P54311 whole entry partner): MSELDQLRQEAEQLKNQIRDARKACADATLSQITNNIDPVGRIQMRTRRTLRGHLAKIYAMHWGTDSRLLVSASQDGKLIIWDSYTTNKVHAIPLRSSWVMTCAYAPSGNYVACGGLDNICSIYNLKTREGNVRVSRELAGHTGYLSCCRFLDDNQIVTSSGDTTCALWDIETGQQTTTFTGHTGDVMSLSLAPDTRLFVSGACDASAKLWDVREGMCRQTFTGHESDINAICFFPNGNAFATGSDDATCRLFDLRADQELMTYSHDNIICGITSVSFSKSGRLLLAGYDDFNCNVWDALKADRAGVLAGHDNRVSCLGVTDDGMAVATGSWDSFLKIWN
Target sequence in this assay (P63212 2-68 partner limits assumed): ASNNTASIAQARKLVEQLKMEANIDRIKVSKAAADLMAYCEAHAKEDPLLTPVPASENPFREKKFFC

[5] = target: T2, FPR2 R205A; assay: BRET assay of Gi coupling to FPR2-Rluc8, permeabilized HEK-293 cells, R205A; type: cell-based; design: expressed in transfected cells; host or cells: HEK-293 cells (ATCC), transient, digitonin-permeabilized
Description: (§1) HEK-293 cells (ATCC, Manassas, VA, USA) were propagated in plastic flasks and on 6-well plates according to the supplier’s protocol. To measure Gi coupling to FPR2, cells were transiently transfected with an FPR2-Rluc8 receptor (wt or mutant) and Gαi1, Venus-1-155-Gγ2 and Venus-155-239-Gβ1 using linear polyethyleneimine MAX (PEI MAX; MW 40,000) at an N/P ratio of 20 and were used for experiments 48 h later. Up to 3.0 μg of plasmid DNA was transfected in each well of a 6-well plate. To measure BRET signals, cells were washed twice with permeabilization buffer (KPS) containing 140 mM KCl, 10 mM NaCl, 1 mM MgCl2, 0.1 mM KEGTA, 20 mM NaHEPES (pH 7.2), harvested by trituration, permeabilized in KPS buffer containing 10 μg ml^−1 high purity digitonin, and transferred to opaque black 96-well plates containing diluted ligands and 2U ml^−1 apyrase. After addition of coelenterazine h (5 µM; Nanolight, Pinetop, AZ, USA), steady-state BRET measurements were made using a Mithras LB940 photon-counting plate reader (Berthold Technologies GmbH, Bad Wildbad, Germany). Raw BRET signals were calculated as the emission intensity at 520–545 nm divided by the emission intensity at 475–495 nm. The data were analyzed in Prism (GraphPad) by using ‘log(agonist) vs normalized response- variable slope (four parameters)’ of dose-response stimulation.
Target sequence in this assay (P25090 whole entry R205A): as the sequence (P25090 whole entry R205A) above
Target sequence in this assay (P63096 whole entry partner): as the sequence (P63096 whole entry partner) above
Target sequence in this assay (P59768 whole entry partner): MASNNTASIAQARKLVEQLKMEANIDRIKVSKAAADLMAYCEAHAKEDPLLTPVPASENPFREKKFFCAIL
Target sequence in this assay (P62873 whole entry partner): as the sequence (P54311 whole entry partner) above

[6] = Aggregation of the ligand in assay buffer (authors' reply to reviewer); type: physicochemical; conditions: peptide with a high hydrophobicity; authors' statement in rebuttal, no data shown
[7] = target: T3, FPR2 R201A (Homo sapiens, UniProt P25090, R201A); assay: 35S-GTPγS binding assay, HEK-293 cell membranes with purified Gi, FPR2 R201A; type: biochemical; design: FLAG; expressed in transfected cells; host or cells: HEK-293 cells, transient, membranes
Target sequence in this assay (P25090 whole entry R201A): as the sequence (P25090 whole entry R205A) above, with R201A, A205R counted along it
Target sequence in this assay (P63096 whole entry partner): as the sequence (P63096 whole entry partner) above
Target sequence in this assay (P54311 whole entry partner): as the sequence (P54311 whole entry partner) above
Target sequence in this assay (P63212 2-68 partner limits assumed): as the sequence (P63212 2-68 partner limits assumed) above

[8] = target: T3, FPR2 R201A; assay: BRET assay of Gi coupling to FPR2-Rluc8, permeabilized HEK-293 cells, R201A; type: cell-based; design: expressed in transfected cells; host or cells: HEK-293 cells (ATCC), transient, digitonin-permeabilized
Description: as §1
Target sequence in this assay (P25090 whole entry R201A): as the sequence (P25090 whole entry R205A) above, with R201A, A205R counted along it
Target sequence in this assay (P63096 whole entry partner): as the sequence (P63096 whole entry partner) above
Target sequence in this assay (P59768 whole entry partner): as the sequence (P59768 whole entry partner) above
Target sequence in this assay (P62873 whole entry partner): as the sequence (P54311 whole entry partner) above

Substance: fMLFK
fold higher potency in activating FPR2 than fMLFE [1]: 500–5000 fold

WKYMVm-induced Gi activation with C5aR (control) [2]: didn’t induce Gi activation
Substance: Trp-Lys-Tyr-Met-Val-d-Met-NH2 [WKYMVm, synthetic peptide agonist of FPR2]
potency for FPR1 compared with FPR2 [3]: lower potency

Substance: fMLF
fold more potent in activating FPR1 than activating FPR2 [3]: ~ 1000 fold

fMLFII-induced FPR2 activation, R205A mutant versus wt [4]: dramatic decrease | fMLFII-induced Gi coupling, R205A mutant versus wt [5]: dramatic decrease | concentration above which fractions of aggregation could occur [6]: above 10 µM | fMLFII-induced FPR2 activation, R201A mutant versus wt [7]: dramatic decrease | fMLFII-induced Gi coupling, R201A mutant versus wt [8]: dramatic decrease
Substance: fMLFII [short formylpeptide]
